{"source": "paper PMC9030223", "about": "“MBP-11901 Inhibits Tumor Growth of Hepatocellular Carcinoma through Multitargeted Inhibition of Receptor Tyrosine Kinases” (Cancers, 2022)", "key": {"HT-29": {"test_system": "HT-29", "test": "CCK-8 cell proliferation/cytotoxicity assay", "type": "cell-based", "details": "Homo sapiens, HT-29, 24 h", "method": "(§1) Cell proliferation was detected using the Cell Counting Kit-8 (CCK-8, Cat. CK04-13; Dojindo Laboratories, Kumamoto, Japan) according to the manufacturer’s instruction. To evaluate cytotoxicity, cells were seeded in a 96-well plate (FHC, 1 × 10^4 cells/well; Caki-2, PLC/PFR.5, and MCF 10A, 1 × 10^4 cells/well; AML12, HepG2, Hep3B, and Huh-7 1.2 × 10^4 cells/well; HeLa, HEK-293, A549, and PC-3, 1.5 × 10^4 cells/well; HT-29, MCF-7, C6, and NE-4C, 2 × 10^4 cells/well). After attachment and stabilization of cells for 24 h, the medium was switched with fresh containing various concentrations (0, 1, 5, 10, 25, 50, and 100 μM) of MBP-11901, and cells were incubated for 22 h. Next, CCK-8 solution was added to each well, and cells were incubated for another 2 h. Absorbance was then measured at 450 nm using a microplate reader (SpectraMax i3, Molecular Devices, San Jose, CA, USA). The IC50 and log IC50 values were calculated using GraphPad Prism (version 5.02; GraphPad PRISM software Inc. San Diego, CA, USA). All experiments were independently performed 3 times. The graph of log IC50 values represents average values."}, "Huh-7": {"test_system": "Huh-7", "test": "CCK-8 cell proliferation/cytotoxicity assay", "type": "cell-based", "details": "Homo sapiens; Huh-7, 24 h treatment", "method": "as §1"}, "MCF-7": {"test_system": "MCF-7", "test": "CCK-8 cell proliferation/cytotoxicity assay", "type": "cell-based", "details": "Homo sapiens, MCF7; MCF-7, 24 h", "method": "as §1"}, "[1]": {"test_system": "MCF10a breast epithelial cells", "test": "CCK-8 cell proliferation/cytotoxicity assay", "type": "cell-based", "details": "Homo sapiens, MCF-10A; MCF10a normal cells, 24 h", "method": "as §1"}, "MDA-MB-231": {"test_system": "MDA-MB-231", "test": "CCK-8 cell proliferation/cytotoxicity assay", "type": "cell-based", "details": "Homo sapiens, MDA-MB-231, 24 h"}, "HepG2 cells [2]": {"test_system": "HepG2 cells", "test": "Transwell migration and invasion assay", "type": "cell-based, human", "details": "HepG2, dose-dependent", "method": "For the migration assay, HepG2 cells were seeded into the upper Transwell chamber at a density of 2 × 10^4 cells and incubated for 24 h. For the invasion assay, 100 μL of Matrigel: serum-free media (1:4) mixture was placed on the filter membrane in the upper chamber and incubated (37 °C, 4 h) to seed cells. Cells were exposed to MBP-11901 and sorafenib for 2 h. Then, the medium in the upper chamber was changed to serum-free medium, whereas the medium in the lower chamber was changed to a medium containing 10% FBS. The medium was replaced once every 2–3 d. Following 6 d incubation, the upper surfaces of the filters were scraped 5 times with cotton swabs to remove nonmigrated cells, whereas cells crossing the membrane into the lower chamber were stained with 1% (w/v) crystal violet for 30 min. Crystal violet was removed and cells were washed with tap water. For the migration assay, after drying at 25 °C, 10% acetic acid solution was added to cells, and left to react in a shaker for 30 min. Absorbance was measured at 590 nm using a microplate reader (SpectraMax i3, Molecular Devices). For the invasion assay, the number of migrated cells was counted."}, "HepG2 cells [3]": {"test_system": "HepG2 cells", "test": "Colony formation assay", "type": "cell-based, human", "method": "HepG2 cells were seeded in a 6-well plate at a density of 2 × 10^4 cells/well and incubated for 24 h. Cells were treated with MBP-11901 and sorafenib for 2 h and media was changed with fresh one. Cells were incubated for 8 d and the medium was replaced once every 2–3 d. The medium was carefully removed, cells were washed with PBS, and fixed with 100% methanol for 30 min. After removing methanol, cells were stained with 0.5% (w/v) crystal violet for 30 min, and washed with tap water. The plate was dried at 25 °C and images were captured under a microscope (Nikon Eclipse Ts2, Tokyo, Japan). The stained area was automatically measured using ImageJ. This experiment was independently performed 3 times. The area of the colony was calculated as a percentage of the total area of the well."}, "HepG2 cells [4]": {"test_system": "HepG2 cells", "test": "JC-1 mitochondrial membrane potential assay", "type": "cell-based, human", "method": "Alterations in MMP were investigated utilizing the cationic dye tetraethylbenzimidazolylcarbocyanine iodide (JC-1) according to the manufacturer’s instructions (Cat. ab113850, Abcam, Cambridge, MA, USA). HepG2 cells were seeded in a 35 mm^2 dish at a density of 7.5 × 10^5 cells/dish and incubated for 24 h. Cells were treated with MBP-11901 for 2 h and media was changed with fresh one. Briefly, after 2 d incubation, cells were washed with 1× dilution buffer, and incubated with 1 μM JC-1 in 1× dilution buffer for 30 min at 37 °C. Cells were then washed 3 times with 1× dilution buffer. Fluorescence was measured under a fluorescence microscope (ECLIPSE Ti, Nikon, Melville, NY, USA) using an excitation filter of 530 nm ± 15 nm and an emission filter of 590 nm ± 17.5 nm."}, "[5]": {"test_system": "HepG2-Luc orthotopic liver tumor", "test": "Orthotopic HCC mouse model (HepG2-Luc bioluminescence)", "type": "in vivo", "details": "82 mg/kg oral once every other day", "method": "The orthotopic HCC mouse model was established by placing a small piece of tumor-derived HepG2-Luc cells. Mice were randomly distributed into 3 groups upon bioluminescence signal reaching 10^7. The first group served as the saline control. The second and third groups were orally administered MBP-11901 (82 mg/kg) and Nexavar® (164 mg/kg) once every other day for 4 weeks. Tumor progression/regression was recorded once weekly by quantifying the bioluminescence signals. Experimental animals were sacrificed by CO2 inhalation."}, "EGFR": {"target": "T1, EGFR (Homo sapiens, UniProt P00533)", "T1 construct": "purchased Eurofins DiscoverX Corporation", "T1 sequence (P00533 25-1210)": "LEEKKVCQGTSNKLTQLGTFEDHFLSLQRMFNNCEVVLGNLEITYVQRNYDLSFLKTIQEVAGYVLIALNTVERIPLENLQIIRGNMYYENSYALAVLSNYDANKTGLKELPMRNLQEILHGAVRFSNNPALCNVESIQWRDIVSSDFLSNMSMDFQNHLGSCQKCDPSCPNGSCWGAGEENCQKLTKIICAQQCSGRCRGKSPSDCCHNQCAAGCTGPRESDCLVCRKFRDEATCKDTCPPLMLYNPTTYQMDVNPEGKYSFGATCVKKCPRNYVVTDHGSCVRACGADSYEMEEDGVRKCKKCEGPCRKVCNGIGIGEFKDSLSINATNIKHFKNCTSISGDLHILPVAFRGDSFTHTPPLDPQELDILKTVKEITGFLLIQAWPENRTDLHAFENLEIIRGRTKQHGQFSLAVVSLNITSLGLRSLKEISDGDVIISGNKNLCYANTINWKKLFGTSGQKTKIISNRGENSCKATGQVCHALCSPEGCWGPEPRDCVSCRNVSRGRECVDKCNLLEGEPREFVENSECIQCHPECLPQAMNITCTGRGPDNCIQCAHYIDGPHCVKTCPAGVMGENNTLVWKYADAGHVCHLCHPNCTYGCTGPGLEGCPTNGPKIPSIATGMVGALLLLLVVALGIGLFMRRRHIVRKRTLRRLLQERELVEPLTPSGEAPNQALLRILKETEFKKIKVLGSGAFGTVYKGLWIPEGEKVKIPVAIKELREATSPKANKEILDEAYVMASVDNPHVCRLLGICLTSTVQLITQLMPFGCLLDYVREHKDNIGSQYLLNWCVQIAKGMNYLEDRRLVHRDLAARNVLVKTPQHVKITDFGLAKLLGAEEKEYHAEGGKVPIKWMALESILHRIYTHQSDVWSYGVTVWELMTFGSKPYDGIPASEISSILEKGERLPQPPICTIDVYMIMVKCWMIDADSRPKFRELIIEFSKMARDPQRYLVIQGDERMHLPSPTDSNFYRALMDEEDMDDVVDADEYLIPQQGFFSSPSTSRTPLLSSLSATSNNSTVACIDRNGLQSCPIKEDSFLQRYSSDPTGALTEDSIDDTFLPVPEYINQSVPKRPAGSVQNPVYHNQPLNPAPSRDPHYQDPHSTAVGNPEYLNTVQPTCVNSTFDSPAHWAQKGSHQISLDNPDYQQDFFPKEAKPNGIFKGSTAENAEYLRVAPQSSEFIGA", "test": "KdELECT binding constant", "method": "(§2) The profiling of MBP-11901 against a panel of 468 kinases was performed by DiscoverX using KINOMEscan technology, an active-site-dependent competition-binding assay (Eurofins DiscoverX Corporation, San Diego, CA, USA). Binding constants (Kd) were calculated by DiscoverX using KdELECT technology, a widely used assay for comparing selectivity across the kinome. The DiscoverX platform reports the thermodynamic Kd to facilitate direct comparison of inhibitor affinity across the kinome, independent of ATP concentration."}, "FGFR1": {"target": "T2, FGFR1 (Homo sapiens, UniProt P11362)", "T2 construct": "purchased Eurofins DiscoverX Corporation", "T2 sequence (P11362 22-822)": "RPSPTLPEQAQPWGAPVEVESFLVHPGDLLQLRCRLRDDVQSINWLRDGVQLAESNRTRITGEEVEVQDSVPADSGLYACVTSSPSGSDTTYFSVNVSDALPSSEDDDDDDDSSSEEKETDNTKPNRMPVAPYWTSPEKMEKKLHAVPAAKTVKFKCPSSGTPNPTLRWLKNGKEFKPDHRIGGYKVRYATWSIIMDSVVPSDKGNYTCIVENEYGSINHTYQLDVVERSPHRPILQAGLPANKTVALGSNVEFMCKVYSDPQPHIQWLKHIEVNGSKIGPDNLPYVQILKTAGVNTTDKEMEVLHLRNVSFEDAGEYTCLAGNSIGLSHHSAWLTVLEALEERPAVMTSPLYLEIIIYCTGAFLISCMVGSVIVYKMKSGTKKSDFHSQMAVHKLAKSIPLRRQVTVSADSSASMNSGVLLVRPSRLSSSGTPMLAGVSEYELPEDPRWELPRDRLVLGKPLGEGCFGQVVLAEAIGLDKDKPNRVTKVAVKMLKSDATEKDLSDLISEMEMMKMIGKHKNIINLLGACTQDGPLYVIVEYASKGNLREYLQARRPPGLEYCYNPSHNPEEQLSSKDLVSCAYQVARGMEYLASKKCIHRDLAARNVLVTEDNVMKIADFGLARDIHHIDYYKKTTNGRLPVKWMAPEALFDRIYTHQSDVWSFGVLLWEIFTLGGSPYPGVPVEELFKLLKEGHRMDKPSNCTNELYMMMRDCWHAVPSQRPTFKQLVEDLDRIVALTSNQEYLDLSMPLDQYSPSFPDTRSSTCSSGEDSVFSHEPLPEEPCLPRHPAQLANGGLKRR", "test": "KdELECT binding constant", "method": "as §2"}, "FGFR2": {"target": "T3, FGFR2 (Homo sapiens, UniProt P21802)", "T3 construct": "purchased Eurofins DiscoverX Corporation", "T3 sequence (P21802 22-821)": "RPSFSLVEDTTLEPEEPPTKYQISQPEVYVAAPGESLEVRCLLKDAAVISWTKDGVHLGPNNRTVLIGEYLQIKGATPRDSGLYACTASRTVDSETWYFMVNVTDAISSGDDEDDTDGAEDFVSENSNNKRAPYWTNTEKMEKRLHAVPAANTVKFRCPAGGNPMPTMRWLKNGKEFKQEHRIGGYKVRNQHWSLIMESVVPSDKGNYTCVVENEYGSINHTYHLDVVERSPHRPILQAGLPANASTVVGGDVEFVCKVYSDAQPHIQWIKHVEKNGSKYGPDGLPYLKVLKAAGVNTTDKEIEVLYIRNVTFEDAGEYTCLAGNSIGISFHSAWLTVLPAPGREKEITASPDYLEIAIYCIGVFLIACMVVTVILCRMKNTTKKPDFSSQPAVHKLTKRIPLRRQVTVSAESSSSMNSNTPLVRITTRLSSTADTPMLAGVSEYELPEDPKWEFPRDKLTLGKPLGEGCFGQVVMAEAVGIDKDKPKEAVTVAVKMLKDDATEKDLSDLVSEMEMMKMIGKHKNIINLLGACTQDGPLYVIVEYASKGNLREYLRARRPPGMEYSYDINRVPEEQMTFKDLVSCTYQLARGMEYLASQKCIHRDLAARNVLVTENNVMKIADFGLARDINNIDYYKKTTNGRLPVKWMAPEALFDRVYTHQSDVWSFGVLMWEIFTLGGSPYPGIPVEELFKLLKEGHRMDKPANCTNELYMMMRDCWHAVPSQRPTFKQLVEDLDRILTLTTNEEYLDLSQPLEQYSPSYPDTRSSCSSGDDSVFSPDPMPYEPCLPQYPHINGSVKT", "test": "KdELECT binding constant", "method": "as §2"}, "KIT": {"target": "T4, KIT (Homo sapiens, UniProt P10721)", "T4 construct": "purchased Eurofins DiscoverX Corporation", "T4 sequence (P10721 26-976)": "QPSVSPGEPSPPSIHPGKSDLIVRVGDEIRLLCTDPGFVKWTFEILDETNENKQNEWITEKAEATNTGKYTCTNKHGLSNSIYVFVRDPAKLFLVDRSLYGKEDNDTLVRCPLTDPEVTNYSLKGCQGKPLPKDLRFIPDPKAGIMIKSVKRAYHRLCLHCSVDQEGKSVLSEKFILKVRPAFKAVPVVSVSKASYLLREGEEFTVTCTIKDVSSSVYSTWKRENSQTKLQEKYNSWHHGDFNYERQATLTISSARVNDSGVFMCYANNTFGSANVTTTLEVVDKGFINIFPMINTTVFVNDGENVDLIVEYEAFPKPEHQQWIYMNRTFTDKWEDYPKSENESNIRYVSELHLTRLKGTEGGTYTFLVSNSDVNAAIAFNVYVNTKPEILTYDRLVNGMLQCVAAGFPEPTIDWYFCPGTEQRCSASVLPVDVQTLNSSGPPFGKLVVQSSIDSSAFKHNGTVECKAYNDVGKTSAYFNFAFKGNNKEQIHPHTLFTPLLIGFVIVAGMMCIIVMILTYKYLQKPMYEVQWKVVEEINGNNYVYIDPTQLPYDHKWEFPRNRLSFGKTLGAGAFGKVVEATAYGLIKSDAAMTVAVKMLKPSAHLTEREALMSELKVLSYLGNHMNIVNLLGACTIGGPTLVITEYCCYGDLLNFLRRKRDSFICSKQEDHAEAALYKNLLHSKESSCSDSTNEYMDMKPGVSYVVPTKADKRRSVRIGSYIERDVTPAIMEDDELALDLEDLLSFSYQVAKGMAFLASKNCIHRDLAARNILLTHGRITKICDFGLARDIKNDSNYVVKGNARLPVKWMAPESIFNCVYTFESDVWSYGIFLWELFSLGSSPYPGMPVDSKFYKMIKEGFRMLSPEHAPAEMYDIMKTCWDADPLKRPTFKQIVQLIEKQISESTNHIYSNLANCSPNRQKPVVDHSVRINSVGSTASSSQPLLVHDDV", "test": "KdELECT binding constant", "details": "mean ± S.D. (n = 2)", "method": "as §2"}}}
{"smiles": "NCC(N)C(=O)Nc1ccc(-c2nc3ccccc3s2)cc1", "note": "(stereo not shown) [MBP-11901]", "values": [{"measurement": "IC50", "setting": "HT-29", "result": "29.86 ± 0.27", "unit": "µM"}, {"measurement": "IC50", "setting": "Huh-7", "result": "29.4 ± 1.13", "unit": "µM"}, {"measurement": "IC50", "setting": "MCF-7", "result": "65.9 ± 12.3", "unit": "µM"}, {"measurement": "IC50", "setting": "[1]", "result": "65.1 ± 1.88", "unit": "µM"}, {"measurement": "IC50", "setting": "MDA-MB-231", "result": "62 ± 6.5", "unit": "µM"}, {"measurement": "migration and invasion of tumor cells", "setting": "HepG2 cells [2]", "result": "highly inhibited"}, {"measurement": "colony formation", "setting": "HepG2 cells [3]; HepG2, 5 μM", "result": "significant reduction"}, {"measurement": "colony growth", "setting": "HepG2 cells [3]; HepG2, high concentrations, compared with sorafenib", "result": "almost no colony growth was observed"}, {"measurement": "mitochondrial potential (JC-1)", "setting": "HepG2 cells [4]", "result": "decrease in mitochondrial potential"}, {"measurement": "level of GPT", "setting": "[5]; 4 weeks", "result": "within the normal range"}, {"measurement": "Ratio of average luminescence intensity to that of the saline group before administration", "setting": "[5]; 0 w (immediately before administration)", "result": "0.77 ± 0.8", "unit": "fold"}, {"measurement": "Ratio of average luminescence intensity to that of the saline group before administration", "setting": "[5]; 1 w", "result": "2.24 ± 2.9", "unit": "fold"}, {"measurement": "Ratio of average luminescence intensity to that of the saline group before administration", "setting": "[5]; 2 w", "result": "0.83 ± 1.8", "unit": "fold"}, {"measurement": "Ratio of average luminescence intensity to that of the saline group before administration", "setting": "[5]; 3 w", "result": "0.03 ± 0.1", "unit": "fold"}, {"measurement": "Ratio of average luminescence intensity to that of the saline group before administration", "setting": "[5]; 4 w", "result": "0.02 ± 0.0", "unit": "fold"}, {"measurement": "Kd", "setting": "EGFR", "result": "> 30", "unit": "µM"}, {"measurement": "Kd", "setting": "FGFR1", "result": "> 30", "unit": "µM"}, {"measurement": "Kd", "setting": "FGFR2", "result": "> 30", "unit": "µM"}, {"measurement": "Kd", "setting": "KIT", "result": "3.85 ± 1.15", "unit": "µM"}]}
